Residual activity data for three molecules are collected here from the kinase profiling compilation of Christmann-Franck et al. (2016).

Chain of WNK2 (human) (Q9Y3S1 whole entry, looked up): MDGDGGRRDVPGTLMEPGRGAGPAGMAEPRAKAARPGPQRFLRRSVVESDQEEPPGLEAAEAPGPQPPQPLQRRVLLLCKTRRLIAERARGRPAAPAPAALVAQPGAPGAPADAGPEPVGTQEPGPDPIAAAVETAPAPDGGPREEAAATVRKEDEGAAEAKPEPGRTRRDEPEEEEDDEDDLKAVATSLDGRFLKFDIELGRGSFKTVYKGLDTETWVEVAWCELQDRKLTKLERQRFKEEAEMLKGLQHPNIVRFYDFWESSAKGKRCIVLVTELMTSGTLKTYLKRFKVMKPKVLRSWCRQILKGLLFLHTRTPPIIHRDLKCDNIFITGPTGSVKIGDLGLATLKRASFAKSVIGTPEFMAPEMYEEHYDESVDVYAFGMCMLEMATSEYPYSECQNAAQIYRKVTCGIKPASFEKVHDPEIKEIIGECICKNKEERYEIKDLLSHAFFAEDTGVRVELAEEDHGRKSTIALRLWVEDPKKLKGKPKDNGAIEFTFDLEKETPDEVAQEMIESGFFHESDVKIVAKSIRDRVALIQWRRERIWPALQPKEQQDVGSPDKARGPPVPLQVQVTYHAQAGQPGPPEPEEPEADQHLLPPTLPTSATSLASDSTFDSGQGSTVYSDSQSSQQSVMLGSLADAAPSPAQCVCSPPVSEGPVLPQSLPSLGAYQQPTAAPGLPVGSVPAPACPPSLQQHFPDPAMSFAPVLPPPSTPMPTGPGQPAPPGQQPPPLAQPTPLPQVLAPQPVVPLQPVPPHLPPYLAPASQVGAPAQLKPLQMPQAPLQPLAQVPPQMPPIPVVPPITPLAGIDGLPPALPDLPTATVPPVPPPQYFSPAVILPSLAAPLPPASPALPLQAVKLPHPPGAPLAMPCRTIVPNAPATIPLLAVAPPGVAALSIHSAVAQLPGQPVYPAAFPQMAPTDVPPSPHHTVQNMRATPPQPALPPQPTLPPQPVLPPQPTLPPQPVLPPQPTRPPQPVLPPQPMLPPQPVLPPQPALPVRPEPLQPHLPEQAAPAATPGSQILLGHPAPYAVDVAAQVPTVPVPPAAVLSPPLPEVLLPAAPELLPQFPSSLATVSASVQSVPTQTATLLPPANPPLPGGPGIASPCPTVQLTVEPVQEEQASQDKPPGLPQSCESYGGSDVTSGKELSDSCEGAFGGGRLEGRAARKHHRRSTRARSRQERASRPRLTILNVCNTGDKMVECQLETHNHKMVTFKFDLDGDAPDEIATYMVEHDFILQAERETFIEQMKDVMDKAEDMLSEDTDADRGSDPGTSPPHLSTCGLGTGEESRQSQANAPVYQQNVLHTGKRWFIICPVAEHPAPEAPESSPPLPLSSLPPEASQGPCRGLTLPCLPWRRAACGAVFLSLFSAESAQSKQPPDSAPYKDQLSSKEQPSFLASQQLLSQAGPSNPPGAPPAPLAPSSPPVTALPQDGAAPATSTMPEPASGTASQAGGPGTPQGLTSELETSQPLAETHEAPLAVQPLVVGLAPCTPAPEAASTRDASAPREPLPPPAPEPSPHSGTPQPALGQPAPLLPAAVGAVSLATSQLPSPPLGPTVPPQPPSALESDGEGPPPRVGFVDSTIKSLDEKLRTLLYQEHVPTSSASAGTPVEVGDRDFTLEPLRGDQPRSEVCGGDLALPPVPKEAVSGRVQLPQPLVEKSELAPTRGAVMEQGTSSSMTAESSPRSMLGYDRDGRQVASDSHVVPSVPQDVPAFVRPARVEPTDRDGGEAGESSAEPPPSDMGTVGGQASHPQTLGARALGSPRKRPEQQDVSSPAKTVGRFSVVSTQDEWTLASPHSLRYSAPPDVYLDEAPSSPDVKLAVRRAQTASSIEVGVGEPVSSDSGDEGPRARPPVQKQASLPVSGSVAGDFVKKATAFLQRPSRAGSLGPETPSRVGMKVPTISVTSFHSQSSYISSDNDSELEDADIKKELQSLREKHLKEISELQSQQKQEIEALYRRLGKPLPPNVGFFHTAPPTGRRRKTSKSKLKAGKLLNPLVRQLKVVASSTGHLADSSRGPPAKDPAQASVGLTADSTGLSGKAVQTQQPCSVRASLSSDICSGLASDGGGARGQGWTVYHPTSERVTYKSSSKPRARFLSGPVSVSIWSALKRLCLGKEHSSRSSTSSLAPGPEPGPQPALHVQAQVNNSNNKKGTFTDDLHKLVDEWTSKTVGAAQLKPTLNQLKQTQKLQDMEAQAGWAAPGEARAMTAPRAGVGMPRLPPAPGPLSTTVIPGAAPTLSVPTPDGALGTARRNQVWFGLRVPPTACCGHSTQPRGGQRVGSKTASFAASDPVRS
Chain of PRKCI (human) (P41743 whole entry, looked up): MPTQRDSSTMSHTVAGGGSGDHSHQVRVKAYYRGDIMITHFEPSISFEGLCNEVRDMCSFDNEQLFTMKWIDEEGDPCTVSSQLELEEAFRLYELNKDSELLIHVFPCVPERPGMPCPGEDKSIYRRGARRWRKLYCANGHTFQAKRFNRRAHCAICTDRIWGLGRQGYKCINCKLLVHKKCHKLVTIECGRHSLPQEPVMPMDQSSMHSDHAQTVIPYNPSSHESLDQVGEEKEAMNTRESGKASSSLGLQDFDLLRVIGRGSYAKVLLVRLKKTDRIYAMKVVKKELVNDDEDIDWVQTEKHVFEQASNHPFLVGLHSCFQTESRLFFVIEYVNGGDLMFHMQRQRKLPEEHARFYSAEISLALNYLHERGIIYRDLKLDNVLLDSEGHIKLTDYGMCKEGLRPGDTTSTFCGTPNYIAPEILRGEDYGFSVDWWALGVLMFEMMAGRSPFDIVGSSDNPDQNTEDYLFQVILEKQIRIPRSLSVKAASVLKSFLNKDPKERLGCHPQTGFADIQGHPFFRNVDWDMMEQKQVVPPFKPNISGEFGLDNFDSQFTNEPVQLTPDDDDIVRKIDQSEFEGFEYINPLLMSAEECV
Chain of PBK (human) (Q96KB5 whole entry, looked up): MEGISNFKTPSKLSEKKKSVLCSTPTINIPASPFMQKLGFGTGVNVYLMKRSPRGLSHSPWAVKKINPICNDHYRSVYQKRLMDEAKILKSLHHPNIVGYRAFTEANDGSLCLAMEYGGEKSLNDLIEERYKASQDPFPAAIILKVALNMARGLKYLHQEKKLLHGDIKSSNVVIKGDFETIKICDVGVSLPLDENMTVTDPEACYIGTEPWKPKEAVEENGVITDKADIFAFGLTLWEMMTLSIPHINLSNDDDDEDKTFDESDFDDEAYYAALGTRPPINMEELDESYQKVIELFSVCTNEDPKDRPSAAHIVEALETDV

The first experiment deals with MAP3K11 (human) (UniProt Q16584). Briefly: radiometric filter-binding kinase assay, Kinase HotSpot. Conditions: compound 0.5 µM; ATP 10 µM.
A word on the residual activity: it is the signal under treatment as a percentage of the control signal. `CCN(CC)CCCCN1c2ccccc2Oc2ccc(Cl)cc21`: the residual activity worked out at 99.9%.

Turning to `CC(=O)O/N=C1\C(=C2\C(=O)Nc3cc(Br)ccc32)Nc2ccccc21`, the residual activity came out at 42.5%.

Regarding `O=C(O)/C=C/c1cc(Br)c(Br)c(Br)c1Br`, the residual activity came to 96.3%.

A further experiment has as its target MAPK14 (human) (UniProt Q16539). Described as above. Conditions: compound 0.5 µM; ATP 10 µM.
Take `CCN(CC)CCCCN1c2ccccc2Oc2ccc(Cl)cc21`: the residual activity was determined as 95.8%.

For `CC(=O)O/N=C1\C(=C2\C(=O)Nc3cc(Br)ccc32)Nc2ccccc21`, the residual activity is 99.2%.

For the molecule `O=C(O)/C=C/c1cc(Br)c(Br)c(Br)c1Br`, the residual activity stood at 99.5%.

The target of another experiment is MARK4 (human) (UniProt Q96L34). Described as above. Conditions: compound 0.5 µM; ATP 10 µM.
With `CCN(CC)CCCCN1c2ccccc2Oc2ccc(Cl)cc21`, the residual activity worked out at 97.2%.

Take `CC(=O)O/N=C1\C(=C2\C(=O)Nc3cc(Br)ccc32)Nc2ccccc21`: the residual activity worked out at 77.6%.

As for `O=C(O)/C=C/c1cc(Br)c(Br)c(Br)c1Br`, the residual activity came to 93.1%.

In a further experiment the target is MATK (human) (UniProt P42679). The description is as above. Conditions: compound 0.5 µM; ATP 10 µM.
For `CCN(CC)CCCCN1c2ccccc2Oc2ccc(Cl)cc21`, the residual activity amounted to 99.9%.

`CC(=O)O/N=C1\C(=C2\C(=O)Nc3cc(Br)ccc32)Nc2ccccc21`: the residual activity came to 93%.

In the case of `O=C(O)/C=C/c1cc(Br)c(Br)c(Br)c1Br`, the residual activity amounted to 87.2%.

Another experiment concerns the target MERTK (human) (UniProt Q12866). The description is as above. Conditions: compound 0.5 µM; ATP 10 µM.
For `CCN(CC)CCCCN1c2ccccc2Oc2ccc(Cl)cc21`, the residual activity came out at 95.5%.

With `CC(=O)O/N=C1\C(=C2\C(=O)Nc3cc(Br)ccc32)Nc2ccccc21`, the residual activity was found to be 77%.

As for `O=C(O)/C=C/c1cc(Br)c(Br)c(Br)c1Br`, the residual activity was determined as 92.4%.

The target of a further experiment is MINK1 (human) (UniProt Q8N4C8). Described as above. Conditions: compound 0.5 µM; ATP 10 µM.
As to `CCN(CC)CCCCN1c2ccccc2Oc2ccc(Cl)cc21`, the residual activity stood at 111%.

As to `CC(=O)O/N=C1\C(=C2\C(=O)Nc3cc(Br)ccc32)Nc2ccccc21`, the residual activity came out at 76.1%.

Take `O=C(O)/C=C/c1cc(Br)c(Br)c(Br)c1Br`: the residual activity came to 96%.

The target of a further experiment is NEK1 (human) (UniProt Q96PY6). Described as above. Particulars: compound 0.5 µM; ATP 10 µM.
As to `CCN(CC)CCCCN1c2ccccc2Oc2ccc(Cl)cc21`, the residual activity worked out at 101%.

Take `CC(=O)O/N=C1\C(=C2\C(=O)Nc3cc(Br)ccc32)Nc2ccccc21`: the residual activity is 94.7%.

On to `O=C(O)/C=C/c1cc(Br)c(Br)c(Br)c1Br`, for which the residual activity was determined as 85.4%.

The next experiment deals with NEK3 (human) (UniProt P51956). Described as above. Conditions: compound 0.5 µM; ATP 10 µM.
Chain of NEK3 (human) (P51956 whole entry, looked up): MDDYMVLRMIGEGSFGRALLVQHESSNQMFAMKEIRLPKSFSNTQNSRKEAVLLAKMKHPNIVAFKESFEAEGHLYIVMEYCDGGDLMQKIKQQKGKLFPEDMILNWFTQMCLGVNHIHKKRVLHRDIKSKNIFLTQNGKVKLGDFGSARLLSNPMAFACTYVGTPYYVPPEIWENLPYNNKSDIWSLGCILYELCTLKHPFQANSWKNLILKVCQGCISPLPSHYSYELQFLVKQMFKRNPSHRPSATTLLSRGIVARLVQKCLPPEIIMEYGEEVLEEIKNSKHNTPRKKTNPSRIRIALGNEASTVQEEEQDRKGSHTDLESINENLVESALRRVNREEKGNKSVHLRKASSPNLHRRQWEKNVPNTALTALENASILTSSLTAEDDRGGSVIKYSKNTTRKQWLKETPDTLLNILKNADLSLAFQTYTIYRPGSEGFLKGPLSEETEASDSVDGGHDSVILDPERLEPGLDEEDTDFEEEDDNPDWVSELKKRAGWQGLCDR
`CCN(CC)CCCCN1c2ccccc2Oc2ccc(Cl)cc21`: the residual activity came out at 103%.

With `CC(=O)O/N=C1\C(=C2\C(=O)Nc3cc(Br)ccc32)Nc2ccccc21`, the residual activity was determined as 130%.

On to `O=C(O)/C=C/c1cc(Br)c(Br)c(Br)c1Br`, for which the residual activity turned out to be 83.5%.

The target in the next experiment is PAK1 (human) (UniProt Q13153). The experiment is described as above. Conditions: compound 0.5 µM; ATP 10 µM.
With `CCN(CC)CCCCN1c2ccccc2Oc2ccc(Cl)cc21`, the residual activity stood at 87.7%.

As to `CC(=O)O/N=C1\C(=C2\C(=O)Nc3cc(Br)ccc32)Nc2ccccc21`, the residual activity was 93.6%.

`O=C(O)/C=C/c1cc(Br)c(Br)c(Br)c1Br`: the residual activity is 105%.

Another experiment addresses PBK (human) (UniProt Q96KB5). Described as above. Particulars: compound 0.5 µM; ATP 10 µM.
With `CCN(CC)CCCCN1c2ccccc2Oc2ccc(Cl)cc21`, the residual activity came to 105%.

Consider `CC(=O)O/N=C1\C(=C2\C(=O)Nc3cc(Br)ccc32)Nc2ccccc21`, for which the residual activity was found to be 76.8%.

Take `O=C(O)/C=C/c1cc(Br)c(Br)c(Br)c1Br`: the residual activity worked out at 96.2%.

In the next experiment the target is PHKG1 (human) (UniProt Q16816). The description is as above. Conditions: compound 0.5 µM; ATP 10 µM.
Chain of PHKG1 (human) (Q16816 whole entry, looked up): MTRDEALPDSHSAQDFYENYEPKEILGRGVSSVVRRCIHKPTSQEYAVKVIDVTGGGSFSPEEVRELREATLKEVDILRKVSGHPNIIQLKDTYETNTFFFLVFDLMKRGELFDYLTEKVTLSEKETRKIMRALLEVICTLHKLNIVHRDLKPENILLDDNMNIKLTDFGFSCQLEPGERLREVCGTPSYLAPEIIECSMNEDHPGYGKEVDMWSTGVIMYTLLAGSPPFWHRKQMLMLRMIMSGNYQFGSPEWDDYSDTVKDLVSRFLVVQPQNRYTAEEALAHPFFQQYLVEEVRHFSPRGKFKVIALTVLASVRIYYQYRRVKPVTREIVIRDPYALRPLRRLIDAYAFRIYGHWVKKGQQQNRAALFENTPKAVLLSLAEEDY
As to `CCN(CC)CCCCN1c2ccccc2Oc2ccc(Cl)cc21`, the residual activity came to 96.5%.

Consider `CC(=O)O/N=C1\C(=C2\C(=O)Nc3cc(Br)ccc32)Nc2ccccc21`, for which the residual activity was 67.7%.

As for `O=C(O)/C=C/c1cc(Br)c(Br)c(Br)c1Br`, the residual activity came to 87.6%.

In another experiment the target is PKN2 (human) (UniProt Q16513). Described as above. Conditions: compound 0.5 µM; ATP 10 µM.
Chain of PKN2 (human) (Q16513 whole entry, looked up): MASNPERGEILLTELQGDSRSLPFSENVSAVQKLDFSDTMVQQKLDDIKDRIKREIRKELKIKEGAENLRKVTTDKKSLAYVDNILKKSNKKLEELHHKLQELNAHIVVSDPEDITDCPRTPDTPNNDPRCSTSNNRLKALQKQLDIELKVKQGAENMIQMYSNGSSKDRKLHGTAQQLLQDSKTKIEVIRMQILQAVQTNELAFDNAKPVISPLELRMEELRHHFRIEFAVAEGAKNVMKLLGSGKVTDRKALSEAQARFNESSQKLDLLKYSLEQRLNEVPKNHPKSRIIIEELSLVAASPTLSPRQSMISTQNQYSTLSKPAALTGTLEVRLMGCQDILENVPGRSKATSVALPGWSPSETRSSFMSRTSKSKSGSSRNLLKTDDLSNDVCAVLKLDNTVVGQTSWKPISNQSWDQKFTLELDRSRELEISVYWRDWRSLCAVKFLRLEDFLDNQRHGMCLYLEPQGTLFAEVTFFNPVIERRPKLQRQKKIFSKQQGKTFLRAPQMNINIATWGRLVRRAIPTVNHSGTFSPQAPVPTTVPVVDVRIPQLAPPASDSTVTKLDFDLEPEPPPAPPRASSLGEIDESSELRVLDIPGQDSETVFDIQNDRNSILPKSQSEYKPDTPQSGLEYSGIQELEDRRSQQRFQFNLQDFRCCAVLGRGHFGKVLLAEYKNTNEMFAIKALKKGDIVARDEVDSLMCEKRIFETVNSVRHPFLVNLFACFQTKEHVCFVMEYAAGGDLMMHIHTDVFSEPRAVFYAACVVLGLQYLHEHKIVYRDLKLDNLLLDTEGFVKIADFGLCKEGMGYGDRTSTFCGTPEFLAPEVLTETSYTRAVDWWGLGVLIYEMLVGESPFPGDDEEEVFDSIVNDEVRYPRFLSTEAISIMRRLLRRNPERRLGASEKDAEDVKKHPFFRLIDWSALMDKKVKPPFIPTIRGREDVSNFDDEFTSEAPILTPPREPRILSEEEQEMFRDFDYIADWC
As for `CCN(CC)CCCCN1c2ccccc2Oc2ccc(Cl)cc21`, the residual activity was determined as 72.4%.

Turning to `CC(=O)O/N=C1\C(=C2\C(=O)Nc3cc(Br)ccc32)Nc2ccccc21`, the residual activity is 85.4%.

Consider `O=C(O)/C=C/c1cc(Br)c(Br)c(Br)c1Br`, for which the residual activity worked out at 95.6%.

The next experiment concerns the target PRKCI (human) (UniProt P41743). Described as above. Conditions: compound 0.5 µM; ATP 10 µM.
For the molecule `CCN(CC)CCCCN1c2ccccc2Oc2ccc(Cl)cc21`, the residual activity was 105%.

With `CC(=O)O/N=C1\C(=C2\C(=O)Nc3cc(Br)ccc32)Nc2ccccc21`, the residual activity came out at 74.3%.

Turning to `O=C(O)/C=C/c1cc(Br)c(Br)c(Br)c1Br`, the residual activity was found to be 97.3%.

For the next experiment, the target named is PRKD1 (human) (UniProt Q15139). Described as above. Particulars: compound 0.5 µM; ATP 10 µM.
For the molecule `CCN(CC)CCCCN1c2ccccc2Oc2ccc(Cl)cc21`, the residual activity was found to be 101%.

Turning to `CC(=O)O/N=C1\C(=C2\C(=O)Nc3cc(Br)ccc32)Nc2ccccc21`, the residual activity came to 82.1%.

Regarding `O=C(O)/C=C/c1cc(Br)c(Br)c(Br)c1Br`, the residual activity is 88.9%.

Another experiment deals with PRKD2 (human) (UniProt Q9BZL6). The experiment is described as above. Conditions: compound 0.5 µM; ATP 10 µM.
As to `CCN(CC)CCCCN1c2ccccc2Oc2ccc(Cl)cc21`, the residual activity came to 105%.

On to `CC(=O)O/N=C1\C(=C2\C(=O)Nc3cc(Br)ccc32)Nc2ccccc21`, for which the residual activity amounted to 87.8%.

Regarding `O=C(O)/C=C/c1cc(Br)c(Br)c(Br)c1Br`, the residual activity was 71.6%.

A further experiment has as its target SLK (human) (UniProt Q9H2G2). The experiment is described as above. Particulars: compound 0.5 µM; ATP 10 µM.
Regarding `CCN(CC)CCCCN1c2ccccc2Oc2ccc(Cl)cc21`, the residual activity was 105%.

Turning to `CC(=O)O/N=C1\C(=C2\C(=O)Nc3cc(Br)ccc32)Nc2ccccc21`, the residual activity was determined as 80.2%.

Take `O=C(O)/C=C/c1cc(Br)c(Br)c(Br)c1Br`: the residual activity amounted to 96%.

The target of another experiment is STK25 (human) (UniProt O00506). The experiment is described as above. Particulars: compound 0.5 µM; ATP 10 µM.
Turning to `CCN(CC)CCCCN1c2ccccc2Oc2ccc(Cl)cc21`, the residual activity was determined as 92.6%.

As for `CC(=O)O/N=C1\C(=C2\C(=O)Nc3cc(Br)ccc32)Nc2ccccc21`, the residual activity worked out at 80.9%.

For `O=C(O)/C=C/c1cc(Br)c(Br)c(Br)c1Br`, the residual activity stood at 87.2%.

Another experiment deals with TEK (human) (UniProt Q02763). The description is as above. Conditions: compound 0.5 µM; ATP 10 µM.
`CCN(CC)CCCCN1c2ccccc2Oc2ccc(Cl)cc21`: the residual activity came to 103%.

Consider `CC(=O)O/N=C1\C(=C2\C(=O)Nc3cc(Br)ccc32)Nc2ccccc21`, for which the residual activity stood at 106%.

Take `O=C(O)/C=C/c1cc(Br)c(Br)c(Br)c1Br`: the residual activity turned out to be 94.4%.

The next experiment deals with TSSK2 (human) (UniProt Q96PF2). Described as above. Conditions: compound 0.5 µM; ATP 10 µM.
For the molecule `CCN(CC)CCCCN1c2ccccc2Oc2ccc(Cl)cc21`, the residual activity stood at 103%.

For `CC(=O)O/N=C1\C(=C2\C(=O)Nc3cc(Br)ccc32)Nc2ccccc21`, the residual activity came to 101%.

As for `O=C(O)/C=C/c1cc(Br)c(Br)c(Br)c1Br`, the residual activity is 98.1%.

The next experiment has as its target WEE1 (human) (UniProt P30291). The description is as above. Particulars: compound 0.5 µM; ATP 10 µM.
Consider `CCN(CC)CCCCN1c2ccccc2Oc2ccc(Cl)cc21`, for which the residual activity turned out to be 92.7%.

For `CC(=O)O/N=C1\C(=C2\C(=O)Nc3cc(Br)ccc32)Nc2ccccc21`, the residual activity is 93.7%.

With `O=C(O)/C=C/c1cc(Br)c(Br)c(Br)c1Br`, the residual activity is 99.1%.

A further experiment concerns the target WNK2 (human) (UniProt Q9Y3S1). The description is as above. Conditions: compound 0.5 µM; ATP 10 µM.
In the case of `CCN(CC)CCCCN1c2ccccc2Oc2ccc(Cl)cc21`, the residual activity worked out at 119%.

For the molecule `CC(=O)O/N=C1\C(=C2\C(=O)Nc3cc(Br)ccc32)Nc2ccccc21`, the residual activity was 98.6%.

For `O=C(O)/C=C/c1cc(Br)c(Br)c(Br)c1Br`, the residual activity was determined as 93%.
